From patent publication US20240277246A1, “MANGANESE-ENHANCED MAGNETIC RESONANCE IMAGING” (IC Targets AS, priority 2021, published 2024)
Like-named read-outs stand apart in the source and are kept apart here.

Assays:
[1] = tested on: cardiomyocytes (left ventricle myocardium; uptake via L-type calcium channels); test: Manganese-enhanced T1 mapping MRI, kinetic analysis of cardiomyocyte cellular manganese uptake after MnDPDP infusion; type: in vivo, human
Procedure: A midventricular short axis view was used and a region of interest in the left ventricle myocardium and a region of interest in the blood in the ventricular cavity was used for measurements. […] The total infusion time was 7.5 minutes. T1 mapping MRI was performed every 2.5 minutes for a total of 40 minutes to collect data for kinetic analysis.
After the examination, the myocardial T1 values were converted to changes in relaxation rates from the baseline values according to equation 12. The heamocrit for the subject was measured to 0.44 and the plasma T1 values were converted to changes in relaxation rates according to equation 13.
This is what would be expected from the loss of cells without a loss of individual cell function. Thus, by applying the prior art method, it would therefore wrongly be concluded that the cellular manganese flux rate was reduced.
The rate constant for cardiomyocyte intracellular relaxivity increase Kcell^ΔR1, and thus the cardiomyocyte cellular manganese uptake rate Kcell^Mn, was calculated according to the invention, applying equation 20 where the constant KECF was set equal to 1. The Kcell^Mn value was 0.0650 min^−1. The data used to calculate the rate constant is shown graphically in FIG. 8 (“ict”), corresponding to a straight line with slope=Kcell^Mn=0.0650 min^−1 and intercept=ECV=0.35. […]
If the ECF was in equilibrium with plasma, the slope would be the ECV=0.322. However, due to the uptake of manganese into the cardiomyocytes, the ECF is in dynamic equilibrium with plasma with a manganese concentration ratio of
Assuming that the rate constant for diffusion between plasma and the ECF is the same in both directions, K1=K2 and K3/K1=1/KECF−1=1/0.72−1=0.40.
When the ratio between the manganese concentration in the ECF and plasma can be estimated, the apparent cellular rate constant Kcell^Mn*KECF can be converted to the actual cellular uptake rate constant Kcell^Mn by division with KECF.

[2] = corresponds to end of infusion
Procedure: A midventricular short axis view was used and a region of interest in the left ventricle myocardium and a region of interest in the blood in the ventricular cavity were used for measurements. […] The total infusion time was 7.5 minutes. T1 mapping MRI was performed every 2.5 minutes for a total of 40 minutes to collect data for kinetic analysis.
After the examination, the myocardial T1 values were converted to changes in relaxation rates from the baseline values according to equation 12. The heamocrit for the subject was measured to 0.41 and the plasma T1 values were converted to changes in relaxation rates according to equation 13.
A midventricular short axis view was used in each patient and a region of interest in the left ventricle myocardium and a region of interest in the blood in the ventricular cavity was used for measurements. […] The total infusion time was 7.5 minutes. T1 mapping MRI was performed every 2.5 minutes for a total of 40 minutes to collect data for kinetic analysis.
After the examinations, the myocardial T1 values were converted to changes in relaxation rates from the baseline values according to equation 12. The average heamocrit for the 5 subjects was measured to 0.416 and the plasma T1 values were converted to changes in relaxation rates according to equation 13.

With `Cc1ncc(COP(=O)(O)O)c(CN(CCN(CC(=O)[O-])Cc2c(COP(=O)(O)O)cnc(C)c2O)CC(=O)[O-])c1O.[Mn+2]` [MnDPDP, manganese (II) N,N′-dipyridoxyl-ethylenediamine-N,N′-diacetate-5,5′-bis(phosphate)] the “cardiomyocyte cellular manganese uptake rate Kcell^Mn (corrected by division with KECF)” value ([1]; average of 5 patients with hypertrophic cardiomyopathia, KECF 0.72) was 0.096, the “apparent cellular rate constant Kcell^Mn*KECF” value ([1]; average of 5 patients with hypertrophic cardiomyopathia, linear regression without restrictions to the intercept) was 0.0691 and the “slope of the Patlak line (prior art method)” value ([1]; healthy volunteer, 5 μmol/kg infusion over 7.5 min) was 0.0484 min⁻¹. For the same molecule, the “cardiomyocyte cellular manganese uptake rate Kcell^Mn” value ([1]; healthy volunteer, 5 μmol/kg infusion over 7.5 min, equation 20, KECF set to 1, forced intercept ECV 0.25) was 0.0591 min⁻¹, the “uptake rate constant by the Patlak method of prior art” value ([1]; patient with dilated cardiomyopathia, 5 μmol/kg infusion over 7.5 min) was 0.0429 and the “cardiomyocyte cellular manganese uptake rate Kcell^Mn” value ([1]; patient with dilated cardiomyopathia, 5 μmol/kg infusion over 7.5 min, equation 20, KECF set to 1, forced intercept ECV 0.35) was 0.0650 min⁻¹. For the same molecule, the “time at which plasma ΔR1 is highest” value ([2]; average of 5 patients with hypertrophic cardiomyopathia) was 7.5 min, the “time at which plasma ΔR1 is highest” value ([2]; healthy volunteer) was 7.5 min and the “time at which plasma ΔR1 is highest” value ([2]; patient with dilated cardiomyopathia) was 7.5 min.
